{
  "source": "patent EP2814319B1",
  "about": "“ANTIMICROBIAL COMPOSITION CONTAINING PHOTOCHEMICALLY STABLE SILVER COMPLEXES” (NM Tech Nanomaterials and Microdevices Technology Ltd., priority 2012, dated 2013)",
  "key": {"Solubility in water": {"experiment": "Solubility in water", "type": "physicochemical", "details": "without surfactant", "experimental": "The complex of formula Ag-L can be prepared by adding stoichiometric amounts of 4-mercaptophenylboronic acid to an aqueous solution of a silver salt, such as silver nitrate. […] This complex can be solubilized in aqueous solution by addition of a cationic surfactant.\n(§1) The neutral complex Ag-L with L = 4-mercaptophenilboronic acid was prepared by adding stoichiometric amounts of 4-mercaptophenylboronic acid to an aqueous solution of a silver salt, such as silver nitrate. […] The aqueous solution of the complex was stabilized by addition of Benzalkonium chloride up to reach a concentration of about 2 x 10^-2 M, which corresponds to the double of its critical micelle concentration."}, "[1]": {"experiment": "Photochemical stability of aqueous solutions under ambient light exposure", "type": "physicochemical", "experimental": "The observation that, after a 12 month period, in the presence of a cationic surfactant no precipitation and no formation of metallic Silver occur, confirms the relevant role of the cationic surfactants in determining the stabilization in solution of the neutral complex and the role of the ligand L in stabilizing photochemically the Ag^+ ion.\nas §1"}, "[2]": {"tested_on": "Staphylococcus aureus (ATCC- 6538), Pseudomonas aeruginosa (ATCC - 15442)", "experiment": "Quantitative suspension test for bactericidal activity (UNI EN 1272:2009)", "type": "cell-based", "experimental": "The bactericidal activity was tested on freshly prepared aqueous solutions of the neutral Ag-L complex where the ligand L coordinated to the silver ion is 4-mercaptophenilboronic acid .\nAdditional tests were carried out on aqueous solutions containing the neutral Silver Ag-L complex and different cationic surfactants and, for purpose of comparison, on aqueous solutions containing only the cationic surfactants at the same concentration levels. It is in fact known that the cationic surfactants used for the purposes of the invention are endowed with antimicrobic activity on their own.\nThe bactericidal activity tests were carried out according to UNI EN 1272:2009 and UNI EN 13697:2001 standards, which make reference to chemical disinfectants and antiseptics, by using the following test organism: Staphylococcus aureus (ATCC- 6538), as representative of Gram-positive bacteria and Pseudomonas aeruginosa (ATCC - 15442), as representative of Gram-negative bacteria.\nOn such solutions it was in fact observed a maximum reduction of the bacterial count of ca 6-7 log."}, "[3]": {"details": "treating burns; decreased from 60%; cited from earlier work"}, "[4]": {"tested_on": "Staphylococcus epidermidis", "details": "cited from earlier work"}},
  "data": [
    {"smiles": "OB(O)c1ccc([S][Ag])cc1", "note": "[AgL]", "values": [
      {"measurement": "solubility in water", "setting": "Solubility in water", "result": "only partly soluble in water"},
      {"measurement": "change in color or composition", "setting": "[1]; aqueous solution stabilized with Benzalkonium chloride about 2 x 10^-2 M, 12 months ambient light exposure", "result": "did not show any change in color or composition"},
      {"measurement": "log reduction at 330 µM", "setting": "[2]; Staphylococcus aureus, 0.5 h, concentration of the order of 3.3 x 10^-4 M in water, 30 min of contact, read-out: log reduction of bacterial count", "result": "2 to 3"}
    ]},
    {"smiles": "O=[N+]([O-])[O-].[Ag+]", "note": "[Silver Nitrate, silver nitrate]", "values": [
      {"measurement": "formation of Ag° precipitate", "setting": "[1]; aqueous solution, comparable conditions (ambient light exposure)", "result": "formation of a black Ag° precipitate after few minutes"},
      {"measurement": "number of deaths that were a result of sepsis", "setting": "[3]", "result": 28, "unit": "%"},
      {"measurement": "log reduction of bacterial count", "setting": "[2]; concentration of the order of 3.3 x 10^-4 M in water, 30 min of contact", "result": "2-3 log"},
      {"measurement": "antimicrobial activity after exposure to ambient light", "setting": "[2]; solution of concentration comparable to 3.3 x 10^-4 M", "result": "lose the antimicrobial activity after exposure to ambient light"}
    ]},
    {"smiles": "[H]/N=C(\\N/C(=N/[H])NCCCCCCNC(=N)NC(=N)Nc1ccc(Cl)cc1)Nc1ccc(Cl)cc1", "note": "[chlorhexidine]", "values": [
      {"measurement": "development of resistance", "setting": "[4]", "result": "no evidence of resistance"}
    ]}
  ]
}
